Measured values from patent US10835500B2, “Medicament for accelerated wound healing” (Symrise AG, priority 2014, dated 2020).

Tests used:
[1] = target: T1, recombinantly expressed OR2AT4 (Homo sapiens, UniProt A6NND4); test: CRE dual luciferase assay in OR2AT4-transfected Hana3A cells; assay type: cell-based; settings: for activation of OR2AT4 in the luciferase assay: up to the highest useable concentrations 10-25 μM
T1 construct: expressed in transfected cells; host or cells: Hana3A cells, transient transfection with pcDNA3-OR2AT4 by the calcium phosphate method
T1 sequence (A6NND4 1-320): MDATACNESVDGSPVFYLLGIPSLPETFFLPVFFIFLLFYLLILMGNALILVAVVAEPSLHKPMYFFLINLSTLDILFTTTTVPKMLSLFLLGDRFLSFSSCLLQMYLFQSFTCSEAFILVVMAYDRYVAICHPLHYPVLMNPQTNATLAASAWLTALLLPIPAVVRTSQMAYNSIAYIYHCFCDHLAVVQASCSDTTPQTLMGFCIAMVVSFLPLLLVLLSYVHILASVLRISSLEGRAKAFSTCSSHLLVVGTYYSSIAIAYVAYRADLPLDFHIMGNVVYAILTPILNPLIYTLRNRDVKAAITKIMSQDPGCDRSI
From the text: In order to verify calcium imaging results and investigate dose-dependent activation of OR2AT4, a further method of deorphanization based on a dual luciferase system was used. In this method, in addition to the OR, two luciferases were introduced into the Hana3A cells. When the expressed OR is activated by an odorant and cAMP is formed in the further course of the signal cascade, this initiates expression of firefly luciferase via CRE (cAMP response elements). The second luciferase, Renilla luciferase, serves as a control for transfection and vitality of the cells. By calculating the two luciferase values, the activation capacity of an OR by an odorant can be determined. In the CRE luciferase assay, the odorant remains on the cells for hours in order to ensure that the luciferase is expressed. Because of the longer incubation time of the odorants and the possibility of activating more receptors in a 96-well format, this method is more sensitive than calcium imaging and is well-suited for establishing dose-response relationships.
For Brahmanol, however, a higher concentration (≥75 μM) was required than for Sandalore® (≥25 μM) in order to produce a significant effect at the receptor (FIG. 3c).
(§1) Determination of receptive field of recombinantly expressed OR2AT4. […] As a control, untransfected Hana3A cells were simulated with Sandalore®. 100 μM of ATP was used at the end of each measurement as a positive control stimulus. […] The mean response rate including standard error of the cells is shown relative to the Ringer control. […] Isobornyl.: isobornyl cyclohexanol; S. öl: sandalwood oil. Kruskal-Wallis test with multiple comparison. *: p<0.05. […] Significance was determined between Hana3A cells transfected with OR2AT4-pcDNA3 and pcDNA3 without an insert. The dots show mean normalized luciferase-activity including standard error. Mann-Whitney U test; n=3 experiments. *: p<0.05; **: p<0.01; ***: p<0.001.

[2] = target: T1, recombinantly expressed OR2AT4; test: Calcium imaging of transiently OR2AT4-transfected Hana3A cells; assay type: cell-based; settings: 1 mM odorant, 20 s stimulation, OR2AT4-transfected Hana3A cells
Procedure: Hana3A cells expressing stable endogenous olfactory transduction factors, which specifically target the incorporation of ORs into the cell membrane and thus improve activation capacity, were used as a heterologous expression system. Moreover, the 20 first N-terminal amino acids of rhodopsins (Rho-tag) were added before the N-terminus of the coding sequence of the OR, also in order to support heterologous expression.
A method established at the Department of Cell Physiology of Ruhr University Bochum for deorphanization studies is calcium imaging, in which activation of an OR by an odorant is visualized by a change in the intracellular calcium concentration of transfected cells using a fluorescent dye [cf. Wetzel et al. in: J. Neurosci. 19, pp. 7426-7433 (1999); Spehr et al. in: Science 299, pp. 2054-2058 (2003); Neuhaus et al. in: J. Biol. Chem. 284, pp. 16218-16225 (2009)]. In this method, the Hana3A cells are briefly (20 s) stimulated with an odorant and selected for odorant screenings of high concentrations (up to 1 mM) in order to confirm activation of ORs weakly expressed in Hana3A cells.
The activation of OR2AT4 by Sandalore® was first investigated by the calcium imaging method.
Odorants can not only activate a receptor, but can also act as antagonists to an OR.
as §1
Antagonists of recombinantly expressed OR2AT4. […] 100 μM of ATP was used at the end of each measurement as a positive control stimulus. […] The mean response rate including standard error of the cells is shown relative to the Ringer control. Number of measurements: Ringer (23), Sandalore® (22), Sandalore®+dimetol (11), dimetol (11), Phenirat (14), Sandalore®+Phenirat (22), Oxyphenylon (12), and Sandalore®+Oxyphenylon (20). S: Sandalore®. Kruskal-Wallis test with multiple comparison. *: p<0.05.

ERK1/2 MAPK = test: Western Blot, phosphorylation of ERK1/2 MAPK in HaCaT cells; assay type: cell-based, human; settings: inhibitor 10 μM, Sandalore 500 μM
Procedure: (§2) In the following, an investigation was to be conducted to determine whether a MAPK signalling pathway is activated by Sandalore® stimulation in skin cells, and if so, which pathway is involved. For detection, HaCaT cells were stimulated for 0-30 min with 500 μM of Sandalore®, and the proteins were then isolated and used in Western Blot assays.
In order to reveal a possible interaction of the two MAPK signalling pathways, ERK1/2 phosphorylation in the presence of the p38 MAPK inhibitor SB203580 and p38 MAPK phosphorylation in the presence of the ERK1/2 MAPK inhibitor U0126 were investigated. Phosphorylation was increased for both kinases in the presence of the respective inhibitors compared to the cells stimulated with Sandalore® only. This effect was significant for p38 MAPK (FIG. 17c).
(§3) Effect of Sandalore® stimulation on phosphorylation of MAP kinases in skin cells. A) Western Blot for investigating the phosphorylation of the MAP kinases in HaCaT cells stimulated for 0, 5, 15 and 30 min with Sandalore®(500 μM). In order to confirm uniform protein volume, ▪-tubulin was used as a control. ERK1/2: 42/44 kDa; p38: 43 kDa; JNK/SAPK: 46/54 kDA; ▪-tubulin: 52 kDa. B) Quantitative evaluation of p38 and ERK1/2 phosphorylation of HaCaT cells stimulated for 30 min with Sandalore®(500 μM) or additionally with the p38 inhibitor 5B203580 (10 μM) or ERK1/2 inhibitor U0126 (10 μM). For evaluation, the ratio of the phosphorylated (p) and unphosphorylated proteins was established and compared to that of untreated cells. Mean values including standard error. Mann-Whitney U test. *: p<0.05; ***: p<0.001. In C), the inhibitors of the respective other MAP kinase were used, and phosphorylation was compared to the cells stimulated with Sandalore® (500 μM) alone. Mean values including standard error. Mann-Whitney U test. *: p<0.05. The Western Blot analyses were carried out with three different protein isolations.

HaCaT cells = test: In vitro wound scratch assay, HaCaT cells; assay type: cell-based, human; settings: HaCaT; for Sandalore-increased wound healing on coincubation: 48 hours, Sandalore 500 μM + antagonist 500 μM or inhibitor 10 μM; for effect of the substance alone on wound healing: antagonist 500 μM or inhibitor 10 μM alone
From the text: The MAP kinases p38 and ERK1/2 are often associated with increased proliferation and migration in epidermal wound healing. For this reason, in a further physiological experiment, the effect of Sandalore® on “wound healing” of a confluent cell layer of HaCaT cells or primary keratinocytes was investigated. For this purpose, the wound scratch assay was used, which is an established in vitro method for initial investigations of wound healing processes in keratinocytes.
In order to investigate the role of the OR2AT4 receptor in this effect, a test was conducted to determine whether the two antagonists Oxyphenylon and Phenirat could again reduce the “wound healing” increased by Sandalore®. For this purpose, Sandalore® was mixed with one of the antagonists each in the same ratio, and the effect on “wound healing” of the HaCaT cells was again observed for 48 hours. […] The two antagonists alone had no effect on the “wound healing” (FIG. 18d). The role of the MAP kinases p38 and ERK1/2 was investigated by means of specific inhibitors of the kinases. For p38 MAPK, the […] SB203580 was used, and for ERK1/2 MAPK, the […] U0126 was used. […] The two inhibitors alone had no effect on the wound healing (FIG. 18d).
Effect of Sandalore® stimulation on human keratinocytes in an in vitro “wound healing” assay. Investigation of the “wound healing rate” of A) primary keratinocytes and B) HaCaT cells by means of a wound scratch assay in the presence of Sandalore® (500 μM) or 0.1% DMSO as a control. Left: Transmitted light images of the “wound” observed at various times. The growth margin of the cells was surrounded in black. Scale: 200 μm. Right: Quantitative evaluation of the wound scratch assay. The areas of the wounds were measured and compared to the initial wound (0 h). Mean values including standard error. Mann-Whitney U test; n=4 experiments. *: p<0.05; ***: p<0.001. C) Wound scratch assay in the presence of Sandalore® (500 μM) and one of the antagonists Oxyphenylon (500 μM) or Phenirat (500 μM) respectively, the p38 MAPK inhibitor 5B203580 (10 μM), or the ERK1/2 MAPK inhibitor U0126 (10 μM). The measured wound areas of the treated cells (after 48-hour stimulation) were compared to the control (0.1% DMSO). Mean values including standard error. Kruskal-Wallis test with multiple comparison; n=3 experiments. *: p<0.05. D) Controls for the wound scratch assay with Oxyphenylon (500 μM), Phenirat (500 μM), 5B203580 (10 μM), or U0126 (10 μM) carried out under C). The measured wound areas of the treated cells were compared to the control (0.1% DMSO). Mean value included.

p38 MAPK = test: Western Blot, phosphorylation of p38 MAPK in HaCaT cells; assay type: cell-based, human; settings: inhibitor 10 μM, Sandalore 500 μM
Procedure: as §2
In order to reveal a possible interaction of the two MAPK signalling pathways, ERK1/2 phosphorylation in the presence of the p38 MAPK inhibitor SB203580 and p38 MAPK phosphorylation in the presence of the ERK1/2 MAPK inhibitor U0126 were investigated.
as §3, with “A)” for “Effect of Sandalore® stimulation on phosphorylation of MAP kinases in skin cells. A)”, “In order to confirm uniform protein volume, ▪-tubulin was used as a control.” left out

Molecule | activation of OR2AT4 in the luciferase assay [1] | response rate of the Hana3A cells relative to the Ringer control [2] | Sandalore-increased wound healing on coincubation (HaCaT cells) | effect of the substance alone on wound healing (HaCaT cells) | further results
CC1=CCC(C=CC(C)(C)C(C)O)C1(C)C (centres unmarked) [Polysantol] | no increased activation of OR2AT4 | only Brahmanol showed an increased response rate | – | – | –
C[S+]([O-])c1ccc(-c2nc(-c3ccncc3)c(-c3ccc(F)cc3)[nH]2)cc1 (centres unmarked) [SB203580] | – | – | again reduced to the normal level | no effect | ERK1/2 phosphorylation in the presence of the p38 MAPK inhibitor compared to Sandalore only (ERK1/2 MAPK): increased; Sandalore-induced p38 MAPK phosphorylation with p38 inhibitor (p38 MAPK; 30 min): significantly reduced
CC/C(=C\CC1CC=C(C)C1(C)C)CO (centres unmarked) [Sandranol] | – | only Brahmanol showed an increased response rate | – | – | reaction in the CRE luciferase assay ([1]; at the investigated concentration (≥50 μM)): no reaction
N#CC(=C(/N)Sc1ccccc1N)/C(C#N)=C(\N)Sc1ccccc1N [U0126] | – | – | again reduced to the normal level | no effect | Sandalore-induced ERK1/2 MAPK phosphorylation with ERK1/2 inhibitor (ERK1/2 MAPK; 30 min): significantly reduced; increase of p38 MAPK phosphorylation in the presence of the ERK1/2 MAPK inhibitor compared to Sandalore only (p38 MAPK): significant
isobornyl cyclohexanol | no increased activation of OR2AT4 | only Brahmanol showed an increased response rate | – | – | –
